Assay results reported in patent US20260207711A1, “FORMULATIONS, DEVICES AND METHODS FOR A GLP-1 AGONIST” (Nano Precision Medical, Inc., priority 2023, published 2026).

Assay: Stability of the formulation remaining in terminated devices (purity, remaining concentration, mass balance by HPLC)
Type: physicochemical
Settings: over 77 days; starting purity of semaglutide as received 94%
Description: Each trace in the figure represents a separate measurement of a separate vial. At the end of the time period devices were terminated, disassembled and the internal compositions measured.
The mass balance numbers indicate that no appreciable amount of drug was lost in the form of degradants undetectable by HPLC, such a fibrils.
[…] Purities were […].

semaglutide
total loss in purity: 7-8%
